# Tests used:
# [1] = system: mouse model of rheumatoid arthritis; conditions: in vivo; cited from earlier work
# [2] = system: model of systemic lupus erythematosis; conditions: in vivo; cited from earlier work
# [3] = system: indolent B cell malignancies; conditions: Phase I, subset of patients with indolent B cell malignancies; cited from earlier work
# [4] = biological target: PI3K (p110β/p85α) (h) (Homo sapiens (Human), UniProt P42338); assay: PI3K (p110β/p85α) (h) non-radioactive HTRF kinase assay; format: biochemical
# Method: (§1) PI3K (p110β/p85α) (h) is incubated in assay buffer containing 10 μM phosphatidylinositol-4,5-bisphosphate and MgATP (concentration as required). The reaction is initiated by the addition of the MgATP mix. After incubation for 30 minutes at room temperature, the reaction is stopped by the addition of stop solution containing EDTA and biotinylated phosphatidylinositol-3,4,5-trisphosphate. Finally, detection buffer is added, which contains europium-labelled anti-GST monoclonal antibody, GST-tagged GRP1 PH domain and streptavidin-allophycocyanin. The plate is then read in timeresolved fluorescence mode and the homogenous time-resolved fluorescence (HTRF) signal is determined according to the formula HTRF=10000×(Em665 nm/Em620 nm).
# (§2) The kinase assays described herein were performed at Millipore UK Ltd, Dundee Technology Park, Dundee DD2 1SW, UK.
# [5] = biological target: PI3K (p120γ) (h) (Homo sapiens (Human), UniProt P48736); assay: PI3K (p120γ) (h) non-radioactive HTRF kinase assay; format: biochemical
# Method: as §1, with “(p120γ)” for “(p110β/p85α)”, “phosphatidylinositol-4, 5-bisphosphate” for “phosphatidylinositol-4,5-bisphosphate”
# as §2
# [6] = Compound stability in rat liver microsomes; format: in vitro ADME; conditions: pH 7.4; for CLint scaled at 5 μM: liver microsomes, in vivo CLint extrapolated from rat liver microsome incubation; for half-life at 5 μM: rat liver microsomes 0.5 mg protein/mL, compound 5 μM, NADPH, 37° C., read-out: Rat T1/2
# Method: (§3) Human or rat liver microsomes incubations were conducted in duplicate in polypropylene tubes. The typical incubation mixtures consisted of human or rat liver microsomes (0.5 mg protein/mL), compounds of interest (5 μM) and NADPH (1.0 mM) in a total volume of 200 μL potassium phosphate buffer (PBS, 100 mM, pH 7.4). Compounds were dissolved in DMSO and diluted with PBS such that the final concentration of DMSO was 0.05%. The enzymatic reactions were commenced with the addition of protein after a 3-min preincubation and incubated in a water bath open to the air at 37° C. Reactions were terminated at various time points (0, 5, 10, 15, 30, 60 min) by adding equal volume of ice-cold acetonitrile. The samples were stored at −80° C. until LC/MS/MS assays.
# (§4) The concentrations of compounds in the incubation mixtures of human or rat liver microsomes were determined by a LC/MS/MS method. The ranges of the linearity in the concentration range were determined for each tested compounds.
# (§5) A parallel incubation was performed using denatured microsomes as the negative control, and reactions were terminated at various time points (0, 15, 60 min) after incubation at 37° C.
# (§6) Dextromethorphan (70 μM) was selected as the positive control, and reactions were terminated at various time points (0, 5, 10, 15, 30, 60 min) after incubation at 37° C. Both positive and negative control samples were included in each assay to ensure the integrity of the microsomal incubation system.
# (§7) The concentrations of compounds in human or rat liver microsome incubations were plotted as a percentage of the relevant zero time point control for each reaction.
# [7] = Compound stability in human liver microsomes; format: in vitro ADME; conditions: pH 7.4; for CLint scaled at 5 μM: liver microsomes, in vivo CLint extrapolated from human liver microsome incubation; for half-life at 5 μM: human liver microsomes 0.5 mg protein/mL, compound 5 μM, NADPH, 37° C., read-out: Human T1/2
# Method: as §3, §4, §5, §6, §7
# [8] = biological target: PI3K (p110δ/p85α) (h) (Homo sapiens (Human), UniProt O00329); assay: PI3K (p110δ/p85α) (h) non-radioactive HTRF kinase assay; format: biochemical
# Method: as §1, with “(p110δ/p85α)” for “(p110β/p85α)”, “phosphatidylinositol-4, 5-bisphosphate” for “phosphatidylinositol-4,5-bisphosphate”
# as §2
# [9] = biological target: PI3K (p110α/p85α) (h) (Homo sapiens (Human), UniProt P42336); assay: PI3K (p110α/p85α) (h) non-radioactive HTRF kinase assay; format: biochemical
# Method: as §1, with “(p110α/p85α)” for “(p110β/p85α)”, “phosphatidylinositol 4,5-bisphosphate” for “phosphatidylinositol-4,5-bisphosphate”, “ATP solution.” for “MgATP mix.”, “streptavidin allophycocyanin.” for “streptavidin-allophycocyanin.”
# as §2
# [10] = system: PI3K-β (786-O); assay: p-AKT HTRF assay, PI3K-β in 786-O cells; format: cell-based; conditions: Homo sapiens, 786-0
# Method: (§8) Cells were incubated at 37° C. in a 5% CO2 atmosphere overnight. […] Medium was then aspirated and 50 μL/well of lysis buffer was added. Plates were shaked for 45 minutes at room temperature and then 16 ul/well of lysate was transferred to 384-well plate. 4 ul/well of premixed antibody was added to the wells. The plate was centrifuged at 1000 rpm at RT for 1 minute and then incubated for 4 hours at 22° C., and Phospho-AKT (ser473) Kit was used for detection.
# [11] = biological target: hERG channels (Homo sapiens (Human), UniProt Q12809); assay: hERG assay, automated QPatch procedure; format: cell-based
# Description: Only stable cells with recording parameters above threshold were allowed to enter the drug application procedure.
# [12] = system: PI3K-δ (RAJI); assay: p-AKT HTRF assay, PI3K-δ in RAJI cells stimulated with anti-IgM; format: cell-based; conditions: anti-human IgM stimulation
# Method: as §8
# [13] = system: PI3K-γ (RAW264.7); assay: p-AKT HTRF assay, PI3K-γ in RAW 264.7 cells stimulated with C5a; format: cell-based, murine; conditions: Mus musculus; RAW264.7 cells, C5a stimulation
# Method: as §8
# [14] = system: PI3K-α (SKOV3); assay: p-AKT HTRF assay, PI3K-α in SKOV3 cells; format: cell-based; conditions: Homo sapiens, SK-OV-3
# Method: as §8
# Sequence of PI3K (p110α/p85α) (h) (P42336 whole entry): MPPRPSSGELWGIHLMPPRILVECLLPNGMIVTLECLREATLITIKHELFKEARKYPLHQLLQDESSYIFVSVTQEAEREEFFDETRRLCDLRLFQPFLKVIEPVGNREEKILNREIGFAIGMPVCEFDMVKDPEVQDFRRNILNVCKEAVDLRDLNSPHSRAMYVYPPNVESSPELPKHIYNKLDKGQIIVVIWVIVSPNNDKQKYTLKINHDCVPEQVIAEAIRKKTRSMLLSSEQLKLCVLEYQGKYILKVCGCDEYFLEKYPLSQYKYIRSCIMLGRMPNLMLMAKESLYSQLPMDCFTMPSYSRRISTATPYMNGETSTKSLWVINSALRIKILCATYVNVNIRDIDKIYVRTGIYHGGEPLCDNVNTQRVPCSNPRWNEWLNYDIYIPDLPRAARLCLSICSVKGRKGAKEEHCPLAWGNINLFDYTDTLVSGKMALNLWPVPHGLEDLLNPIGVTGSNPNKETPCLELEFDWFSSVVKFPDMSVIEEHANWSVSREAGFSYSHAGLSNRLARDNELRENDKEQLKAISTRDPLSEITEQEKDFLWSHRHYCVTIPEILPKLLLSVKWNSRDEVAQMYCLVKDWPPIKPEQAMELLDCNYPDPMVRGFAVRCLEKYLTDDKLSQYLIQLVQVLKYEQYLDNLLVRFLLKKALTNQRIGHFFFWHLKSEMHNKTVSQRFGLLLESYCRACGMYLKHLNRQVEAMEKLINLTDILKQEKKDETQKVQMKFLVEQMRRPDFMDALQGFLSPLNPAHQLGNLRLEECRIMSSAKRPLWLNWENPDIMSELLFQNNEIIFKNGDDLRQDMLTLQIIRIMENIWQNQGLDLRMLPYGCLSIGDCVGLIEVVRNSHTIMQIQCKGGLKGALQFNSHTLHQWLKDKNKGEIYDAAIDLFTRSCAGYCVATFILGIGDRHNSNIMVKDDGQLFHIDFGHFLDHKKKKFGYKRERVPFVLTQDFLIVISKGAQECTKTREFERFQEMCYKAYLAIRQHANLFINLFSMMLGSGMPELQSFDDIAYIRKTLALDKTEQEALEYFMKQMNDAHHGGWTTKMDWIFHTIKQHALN
# Sequence of PI3K (p110α/p85α) (h) (P27986 whole entry partner): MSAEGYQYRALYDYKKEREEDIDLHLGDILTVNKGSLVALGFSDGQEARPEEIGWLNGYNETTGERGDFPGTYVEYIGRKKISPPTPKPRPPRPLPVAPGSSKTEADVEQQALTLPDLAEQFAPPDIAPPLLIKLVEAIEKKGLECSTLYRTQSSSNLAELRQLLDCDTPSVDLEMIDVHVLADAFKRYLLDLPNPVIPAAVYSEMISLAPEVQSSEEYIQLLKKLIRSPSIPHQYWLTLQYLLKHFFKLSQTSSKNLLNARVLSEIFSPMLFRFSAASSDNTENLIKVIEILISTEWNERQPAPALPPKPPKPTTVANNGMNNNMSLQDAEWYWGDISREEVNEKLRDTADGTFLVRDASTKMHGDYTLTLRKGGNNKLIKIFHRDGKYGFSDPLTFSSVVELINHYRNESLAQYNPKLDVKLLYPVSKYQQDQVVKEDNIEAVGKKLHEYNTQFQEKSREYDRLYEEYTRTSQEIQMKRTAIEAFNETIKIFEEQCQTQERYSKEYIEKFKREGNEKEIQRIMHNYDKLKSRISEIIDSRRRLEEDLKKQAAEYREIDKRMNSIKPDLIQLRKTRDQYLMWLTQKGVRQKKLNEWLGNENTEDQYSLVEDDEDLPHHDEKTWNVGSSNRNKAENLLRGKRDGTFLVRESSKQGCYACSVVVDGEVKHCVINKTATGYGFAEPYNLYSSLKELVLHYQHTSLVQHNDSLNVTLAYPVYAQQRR
# Sequence of PI3K (p110β/p85α) (h) (P42338 whole entry, the tested form may be a part): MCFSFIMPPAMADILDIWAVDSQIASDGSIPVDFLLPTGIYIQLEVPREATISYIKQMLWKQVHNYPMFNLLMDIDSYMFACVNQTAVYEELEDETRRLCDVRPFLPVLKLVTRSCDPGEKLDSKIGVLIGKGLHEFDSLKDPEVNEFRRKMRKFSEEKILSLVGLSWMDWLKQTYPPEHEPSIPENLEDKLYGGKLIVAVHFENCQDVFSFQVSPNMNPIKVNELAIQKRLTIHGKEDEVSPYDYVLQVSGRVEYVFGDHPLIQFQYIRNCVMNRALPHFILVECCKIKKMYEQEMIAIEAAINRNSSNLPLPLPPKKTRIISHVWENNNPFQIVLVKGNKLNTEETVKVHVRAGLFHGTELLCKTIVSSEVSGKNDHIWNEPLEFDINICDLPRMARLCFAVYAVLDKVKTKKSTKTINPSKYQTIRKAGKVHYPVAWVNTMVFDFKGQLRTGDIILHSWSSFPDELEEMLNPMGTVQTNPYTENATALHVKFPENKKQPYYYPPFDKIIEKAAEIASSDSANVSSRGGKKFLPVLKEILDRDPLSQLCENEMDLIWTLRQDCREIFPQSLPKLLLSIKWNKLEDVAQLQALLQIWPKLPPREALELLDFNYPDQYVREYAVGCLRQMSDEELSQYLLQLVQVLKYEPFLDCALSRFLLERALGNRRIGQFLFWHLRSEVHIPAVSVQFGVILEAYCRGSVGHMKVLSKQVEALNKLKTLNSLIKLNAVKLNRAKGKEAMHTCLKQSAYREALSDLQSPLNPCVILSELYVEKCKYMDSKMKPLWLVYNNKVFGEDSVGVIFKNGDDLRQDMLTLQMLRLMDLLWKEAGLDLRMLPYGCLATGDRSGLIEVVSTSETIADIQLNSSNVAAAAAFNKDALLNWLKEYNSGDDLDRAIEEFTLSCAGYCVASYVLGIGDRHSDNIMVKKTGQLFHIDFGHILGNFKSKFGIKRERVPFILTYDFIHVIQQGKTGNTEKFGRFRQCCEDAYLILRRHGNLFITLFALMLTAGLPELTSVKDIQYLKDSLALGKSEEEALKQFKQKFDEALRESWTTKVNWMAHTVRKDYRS
# Sequence of PI3K (p110β/p85α) (h) (P27986 whole entry partner, the tested form may be a part): as the sequence (P27986 whole entry partner) above
# Sequence of PI3K (p120γ) (h) (P48736 whole entry): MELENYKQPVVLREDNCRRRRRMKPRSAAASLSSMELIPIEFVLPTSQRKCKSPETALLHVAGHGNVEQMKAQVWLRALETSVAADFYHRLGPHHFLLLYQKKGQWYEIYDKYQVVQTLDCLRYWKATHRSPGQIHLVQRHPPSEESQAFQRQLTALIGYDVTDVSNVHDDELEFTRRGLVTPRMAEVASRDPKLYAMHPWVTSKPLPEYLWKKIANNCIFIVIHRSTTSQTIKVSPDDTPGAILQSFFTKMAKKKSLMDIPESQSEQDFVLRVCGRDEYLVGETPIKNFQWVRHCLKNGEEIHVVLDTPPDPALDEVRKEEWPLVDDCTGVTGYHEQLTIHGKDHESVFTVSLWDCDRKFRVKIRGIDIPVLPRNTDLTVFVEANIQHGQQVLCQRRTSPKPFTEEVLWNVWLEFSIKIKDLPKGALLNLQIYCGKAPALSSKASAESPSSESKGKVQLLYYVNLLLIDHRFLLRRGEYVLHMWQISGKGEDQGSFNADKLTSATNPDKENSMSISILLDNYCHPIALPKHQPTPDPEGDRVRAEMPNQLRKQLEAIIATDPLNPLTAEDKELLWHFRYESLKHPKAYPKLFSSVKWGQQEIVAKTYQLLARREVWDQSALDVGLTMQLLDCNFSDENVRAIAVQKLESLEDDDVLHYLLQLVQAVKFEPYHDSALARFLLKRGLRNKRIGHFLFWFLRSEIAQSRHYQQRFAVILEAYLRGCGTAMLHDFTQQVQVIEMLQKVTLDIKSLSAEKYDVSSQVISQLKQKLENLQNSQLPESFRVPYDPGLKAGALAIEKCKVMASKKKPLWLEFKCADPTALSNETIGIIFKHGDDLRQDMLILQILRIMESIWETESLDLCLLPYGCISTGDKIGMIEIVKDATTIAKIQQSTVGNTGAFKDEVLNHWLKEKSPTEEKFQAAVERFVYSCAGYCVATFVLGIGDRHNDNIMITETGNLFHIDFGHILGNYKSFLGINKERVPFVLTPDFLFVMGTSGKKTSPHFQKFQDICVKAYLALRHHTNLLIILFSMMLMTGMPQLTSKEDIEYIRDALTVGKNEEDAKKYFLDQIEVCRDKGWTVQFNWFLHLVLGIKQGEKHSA
# Sequence of PI3K (p110δ/p85α) (h) (O00329 whole entry): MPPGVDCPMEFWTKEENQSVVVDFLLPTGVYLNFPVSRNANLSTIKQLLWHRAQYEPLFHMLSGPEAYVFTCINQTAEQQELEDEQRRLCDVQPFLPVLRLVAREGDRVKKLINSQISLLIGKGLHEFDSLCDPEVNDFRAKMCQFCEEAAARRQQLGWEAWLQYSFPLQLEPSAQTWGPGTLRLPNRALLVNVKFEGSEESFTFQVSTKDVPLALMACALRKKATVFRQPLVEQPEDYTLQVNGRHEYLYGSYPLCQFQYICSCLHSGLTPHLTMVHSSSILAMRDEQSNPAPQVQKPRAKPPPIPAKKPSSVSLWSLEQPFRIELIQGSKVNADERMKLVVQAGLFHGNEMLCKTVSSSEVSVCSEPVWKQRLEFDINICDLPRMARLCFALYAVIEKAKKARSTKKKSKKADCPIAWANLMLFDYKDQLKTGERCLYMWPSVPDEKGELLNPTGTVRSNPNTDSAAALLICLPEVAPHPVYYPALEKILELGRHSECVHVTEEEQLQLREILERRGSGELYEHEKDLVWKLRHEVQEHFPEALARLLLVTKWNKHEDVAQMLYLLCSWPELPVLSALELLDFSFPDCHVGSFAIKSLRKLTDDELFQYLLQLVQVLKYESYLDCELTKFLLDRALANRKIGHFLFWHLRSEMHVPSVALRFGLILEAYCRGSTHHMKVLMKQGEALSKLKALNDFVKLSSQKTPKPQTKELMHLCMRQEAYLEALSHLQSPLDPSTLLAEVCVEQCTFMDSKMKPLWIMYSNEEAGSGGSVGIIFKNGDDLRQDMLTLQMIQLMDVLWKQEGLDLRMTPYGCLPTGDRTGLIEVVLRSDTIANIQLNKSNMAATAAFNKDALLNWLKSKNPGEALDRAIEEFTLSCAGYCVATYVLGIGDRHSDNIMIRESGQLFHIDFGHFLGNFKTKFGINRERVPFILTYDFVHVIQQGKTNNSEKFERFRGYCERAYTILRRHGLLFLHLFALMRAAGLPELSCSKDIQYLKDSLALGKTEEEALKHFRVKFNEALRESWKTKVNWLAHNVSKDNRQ
# Sequence of PI3K (p110δ/p85α) (h) (P27986 whole entry partner): as the sequence (P27986 whole entry partner) above
Compound,efficacy in a mouse model of rheumatoid arthritis [1],effect on onset of disease in a model of systemic lupus erythematosis [2],clinical response [3],IC50 [4],IC50 [5],CLint scaled at 5 μM [6],half-life at 5 μM [6],CLint scaled at 5 μM [7],half-life at 5 μM [7],IC50 [8],IC50 [9],IC50 [10],IC50 [11],IC50 [12],IC50 [13],IC50 [14]
O=C1NC(=O)/C(=C\c2ccc3nccnc3c2)S1 [AS 605240],efficacious,delay onset of disease,–,–,–,–,–,–,–,–,–,–,–,–,–,–
"CC[C@H](Nc1ncnc2[nH]cnc12)c1nc2cccc(F)c2c(=O)n1-c1ccccc1 [CAL-101, idelalisib]",–,–,dramatic and durable responses,–,–,–,–,–,–,–,–,–,–,–,–,–
"Cc1noc(-c2c(N)ncnc2N[C@@H](C)c2nc3cccc(C#CC(C)O)c3c(=O)n2-c2ccccc2)n1 (stereo partly drawn) [Example 5, 2-((S)-1-((6-amino-5-(3-meth-1,2,4-oxadiazol-5-1)pyrimidin-4-1)amino)ethyl)-5-(3-hydroxybut-1-yn-1-yl)-3-phenylquinazolin-4(3H)-one]",–,–,–,1870 nM,512 nM,28 mL/min/kg,88.7 min,20.8 mL/min/kg,83.7 min,17 nM,2400 nM,–,–,–,–,–
"CC#Cc1cccc2nc([C@H](C)Nc3ncnc(N)c3-c3nc(C)no3)n(-c3ccccc3)c(=O)c12 [Example 9, (S)-2-(1-((6-amino-5-(3-methyl-1,2,4-oxadiazol-5-yl)pyrimidin-4-yl)amino)ethyl)-3-phenyl-5-(prop-1-yn-1-yl)quinazolin-4(3H)-one]",–,–,–,151 nM,47 nM,85.2 mL/min/kg,29.2 min,80.5 mL/min/kg,21.6 min,2 nM,460 nM,–,–,–,–,–
"CC#Cc1cccc2nc([C@H](CC)Nc3ncnc(N)c3-c3nc(C)no3)n(-c3ccccc3)c(=O)c12 [Example 14, (S)-2-(1-((6-amino-5-(3-methyl-1,2,4-oxadiazol-5-yl)pyrimidin-4-yl)amino)propyl)-3-phenyl-5-(prop-1-yn-1-yl)quinazolin-4(3H)-one]",–,–,–,582 nM,15 nM,213 mL/min/kg,11.7 min,150 mL/min/kg,11.6 min,8 nM,1890 nM,–,–,–,–,–
"CC#Cc1cccc2cc([C@H](C)Nc3ncnc(N)c3-c3nc(C)no3)n(-c3ccccc3)c(=O)c12 [Example 16, (S)-3-(1-((6-amino-5-(3-methyl-1,2,4-oxadiazol-5-yl)pyrimidin-4-yl)amino)ethyl)-2-phenyl-8-(prop-1-yn-1-yl)isoquinolin-1(2H)-one]",–,–,–,61 nM,26 nM,–,–,–,–,10 nM,121 nM,34.4 nM,> 30000 nM,0.52 nM,22.6 nM,305 nM
"CC[C@H](Nc1ncnc(N)c1-c1nc(C)no1)c1nc2cccc(C#CCO)c2c(=O)n1C1CC1 [Example 29, (S)-2-(1-((6-amino-5-(3-methyl-1,2,4-oxadiazol-5-yl)pyrimidin-4-yl)amino)propyl)-3-cyclopropyl-5-(3-hydroxyprop-1-yn-1-yl)quinazolin-4(3H)-one]",–,–,–,119 nM,77 nM,88.8 mL/min/kg,28 min,72.2 mL/min/kg,24.1 min,24 nM,> 3000 nM,–,–,–,–,–
"CC[C@H](Nc1ncnc(N)c1-c1nc(C)no1)c1nc2cccc(C#CCO)c2c(=O)n1-c1ccccc1 [Example 36, (S)-2-(1-((6-amino-5-(3-methyl-1,2,4-oxadiazol-5-yl)pyrimidin-4-yl)amino)propyl)-5-(3-hydroxyprop-1-yn-1-yl)-3-phenylquinazolin-4(3H)-one]",–,–,–,395 nM,30 nM,138 mL/min/kg,18 min,98.3 mL/min/kg,17.7 min,10 nM,2660 nM,–,–,–,–,–
"CC[C@H](Nc1ncnc(N)c1-c1nnc(C)o1)c1nc2cccc(C#CCO)c2c(=O)n1-c1ccccc1 [Example 37, (S)-2-(1-((6-amino-5-(5-methyl-1,3,4-oxadiazol-2-yl)pyrimidin-4-yl)amino)propyl)-5-(3-hydroxyprop-1-yn-1-yl)-3-phenylquinazolin-4(3H)-one]",–,–,–,> 3000 nM,440 nM,113 mL/min/kg,22 min,39.8 mL/min/kg,43.7 min,45 nM,> 3000 nM,–,–,–,–,–
"Cc1noc(-c2c(N)ncnc2N[C@@H](C)c2nc3ccc(F)c(C#CCO)c3c(=O)n2-c2ccccc2)n1 [Example 42, (S)-2-(1-((6-amino-5-(3-methyl-1,2,4-oxadiazol-5-yl)pyrimidin-4-yl)amino)ethyl)-6-fluoro-5-(3-hydroxyprop-1-yn-1-yl)-3-phenylquinazolin-4(3H)-one]",–,–,–,1600 nM,349 nM,–,–,–,–,17 nM,> 3000 nM,–,–,–,–,–
